Experiments:
organoid A = assay: Organoid cell viability / IC50; assay type: cell-based; settings: for IC50: organoid A
Method: (§1) In embodiments organoids were created by embedding single cells in Matrigel on ice and seeding the cells in 48 well plates. After the Matrigel was polymerized for 10 minutes at 37° C. basal culture medium was overlaid containing at least one of the optimized growth factor combinations in FIG. 19.
(§2) ATAC-Seq tests were run to determine which pathways were up and down regulated in the presence of various drugs. […] The effectiveness of oxaliplatin 230, an FGFR1 inhibitor 231, along with oxaliplatin and an FGFR1 inhibitor 234 as cell killers was tested in the organoid as shown in FIG. 23. […] The cell killing potential of oxaliplatin 241, an oxytocin antagonist 243, along with oxaliplatin and an oxytocin antagonist 245 was tested as shown in FIG. 24.

organoid B = assay: Organoid cell viability / IC50; assay type: cell-based
Method: as §1, §2

organoid C = assay: Organoid cell viability / IC50; assay type: cell-based
Method: as §1, §2

CRC057 [1] = assay: High-throughput drug screen, CellTiter-Glo cell viability; assay type: cell-based, human; settings: CRC057 cell line; 1 μM; 72 hours
Method: (§3) Unless otherwise noted all experiments were carried out using the following materials and methods which are here presented as examples and not limiting embodiments. All equivalent variants are contemplated as part of the presently disclosed subject matter. An Echo Acoustic Dispenser provided automated liquid handling for drug addition while cell plating was performed by a Thermo Fisher Well Mate and assays used a Clarioscan plate reader. The drugs assayed were stamped to the cell plates immediately prior to cell plating at a final concentration of 1 μM. The drug pre-coated plates were plated with 500-1000 cells/well. 72 hours after cell plating cell viabilities were assessed via a CellTiter-Glo Luminescent Cell Viability Assay.
(§4) In this embodiment matching cells lines 31 and PDXs are created 32. These can be developed as described in the Uronis and Kim papers previously incorporated by reference. Drugs may subsequently be screened using these cell lines 33 the results validated in vivo 34 and RNA-Seq and molecular analysis 35 used. As a non-limiting example, CRC057, CRC119, CRC240, CRC247 15-496, and 16-159 were derived from patient colorectal cancers. It should be understood by those of skill in the art that any suitable type of cancer sample may have been taken. High-throughput drug screens, including 119 FDA-approved drug compounds, were performed using the patient-derived cell lines. Any suitable type of high or low throughput drug screen of any FDA approved or non-FDA approved drug may be performed on the cell lines. […] 88%, 95%, 88, and 89% of CRC119 were killed by docetaxel 42, doxorubicin 41, and the vinca alkaloids vincristine and vinorelbine 43 respectively. 46%, 93%, 63% and 56% of CRC240 were killed by docetaxel 42, doxorubicin 41, and the vinca alkaloids vincristine and vinorelbine 43 respectively. 47% 83%, 46% and 46% of CRC057 were killed by docetaxel 42, doxorubicin 41, and the vinca alkaloids vincristine and vinorelbine 43 respectively. 25%, 70%, 37%, and 33% of CRC247 were killed by docetaxel 42, doxorubicin 41, and the vinca alkaloids vincristine and vinorelbine 43 respectively. […] CRC119 45 and 16-159 46 were sensitive to the standard of care cytotoxic chemotherapeutic agent irinotecan with 43% and 64% of cells killed respectively.

CRC119 = assay: as above; assay type: cell-based, human; settings: CRC119 cell line; 1 μM; 72 hours
Method: as §3, §4

CRC240 [2] = assay: as above; assay type: cell-based, human; settings: CRC240 cell line; 1 μM; 72 hours
Method: as §3, §4

CRC247 = assay: as above; assay type: cell-based, human; settings: CRC247 cell line; 1 μM; 72 hours
Method: as §3, §4

16-159 = assay: as above; assay type: cell-based, human; settings: 16-159 cell line; 1 μM; 72 hours
Method: as §3, §4

CRC119 organoid = assay: Organoid drug sensitivity assay (Cell Titer Glo); assay type: cell-based, human; settings: SN38 tested rather than irinotecan in organoids
Method: (§5) In embodiments, organoids are prepared by mincing a […] tissue sample into <2 mm^3 pieces. Samples are then digested in 5 mL of DMEMF-12+Penicillin Streptomycin+Rock inhibitor Y-27632 along with 20 μL of 0.25% Trypsin/EDTA for an hour with manual inversion every 10 minutes. After being spun down at 1500 RPM the pellet is washed with 5 mL of 10% FBS. During each of 3 washes the material is pipetted slowly about fifteen times. After each wash supernatant is collected and passed through a 70 μm cell strainer. Collected washes are spun down for five minutes at 1500 RPM and the pellet mixed with a 4:1 mixture of Matrigel®/PBS and plated. After the Matrigel® solidifies 1 mL of media is added to each well.
(§6) Collected matrigel is spun for 7 minutes at 1500 RPM. The pellet is collected and resuspended in 300 μL of PBS. 50 μL of this mixture is then mixed with 50 μL of a 1:1 mixture of matrigel/PBS. 5 μL of this mixture is then added to the center of each well in a 96 well plate and the plate incubated until the matrigel solidifies. […] After 90 μL of media is added and the plate is incubated at 37° C. for 24 hours, 5 μL of the tested drug is added to each well. Example concentrations, such as 100 nM, 1 μM and 10 μM concentrations, may be tested in triplicate. After the plate is incubated at 37° C. for 48 hours, 40 μL of Cell Titer Glo for organoids is added to each well to determine drug sensitivity.
(§7) In embodiments, patients undergo biopsy of metastatic cancer, CT of the chest, abdomen and pelvis. In embodiments, drug sensitivity is tested within 7-10 days (or 2-3 days) of obtaining tissue. In embodiments, FIG. 12, organoids are prepared from a PDX biopsy 121 by collecting and digesting cells 122, seeding the cells in a 24 well plate 123, after incubation seeding cells from the 24 well plate in a 96 well plate 124 and screening drugs 125. […] Sensitivity to oxaliplatin at 100 nM, 1 μM, and 10 μM was tested on 8 organoids, CRC057, CRC119, CRC240, CRC16-159, CRC17-608, CRC18-347, CRC247 and CRC18-266, created using the above procedure. […] SN38 (7-ethyl-10-hydroxycamptothecin) was tested, rather than irinotecan, in organoids since irinotecan undergoes deesterification to SN-38 in vivo but not in vitro.

CRC240 organoid = assay: Organoid drug sensitivity assay (Cell Titer Glo); assay type: cell-based, human; settings: SN38 tested rather than irinotecan in organoids
Method: as §5, §6, §7

CRC119 PDX = assay: PDX studies accompanying the organoid studies (tumor growth inhibition); assay type: in vivo, mice; settings: 10 mg/kg oxaliplatin or 20 mg/kg irinotecan weekly IP for three weeks
Description: (§8) PDX studies accompanying the organoid studies were developed as described previously and in Uronis J M, Osada T, McCall S, Yang X Y, Mantyh C, Morse M A, et al. Histological and molecular evaluation of patient-derived colorectal cancer explants. PloS one 2012; 7:e38422, and Kim M K, Osada T, Barry W T, Yang X Y, Freedman J A, Tsamis K A, et al. Characterization of an oxaliplatin sensitivity predictor in a preclinical murine model of colorectal cancer. Molecular cancer therapeutics 2012; 11:1500-1509. Both of these references are hereby incorporated in their entirety. 6-8 week old NOD/SCID-beige mice were used and the tumors were measured twice a week as described above. Once tumors reached a size of 250 mm^3 mice were treated with either 10 mg/kg oxaliplatin or 20 mg/kg irinotecan weekly via IP (intraperitoneal injection) for three weeks with saline used as a control. PDX tumor sizes were recorded and one-way ANOVA analysis were carried out as described in the references above to determine TGI (tumor growth inhibition.
as §7

CRC240 PDX = assay: as above; assay type: in vivo, mice; settings: 10 mg/kg oxaliplatin or 20 mg/kg irinotecan weekly IP for three weeks
Description: as §8, §7

CRC057 organoid = assay: Organoid drug sensitivity assay (Cell Titer Glo); assay type: cell-based, human
Method: as §5, §6, §7

CRC16-159 organoid = assay: Organoid drug sensitivity assay (Cell Titer Glo); assay type: cell-based, human
Method: as §5, §6, §7

CRC18-347 organoid = assay: Organoid drug sensitivity assay (Cell Titer Glo); assay type: cell-based, human
Method: as §5, §6, §7

18-347 PDX = assay: PDX studies accompanying the organoid studies (tumor growth inhibition); assay type: in vivo, mice; settings: 10 mg/kg oxaliplatin weekly IP for three weeks
Description: as §8, §7

CRC057 PDX = assay: as above; assay type: in vivo, mice; settings: 10 mg/kg oxaliplatin weekly IP for three weeks
Description: as §8, §7

CRC16-159 PDX = assay: as above; assay type: in vivo, mice; settings: 10 mg/kg oxaliplatin weekly IP for three weeks
Description: as §8, §7

CRC cell lines = assay: High-throughput drug screen, panel of patient-derived cell lines; assay type: cell-based; settings: Homo sapiens, in 4/6 cell lines, mined drug screen data, read-out: inhibits growth
Method: as §3
In this embodiment matching cells lines 31 and PDXs are created 32. These can be developed as described in the Uronis and Kim papers previously incorporated by reference. Drugs may subsequently be screened using these cell lines 33 the results validated in vivo 34 and RNA-Seq and molecular analysis 35 used. As a non-limiting example, CRC057, CRC119, CRC240, CRC247 15-496, and 16-159 were derived from patient colorectal cancers. It should be understood by those of skill in the art that any suitable type of cancer sample may have been taken. High-throughput drug screens, including 119 FDA-approved drug compounds, were performed using the patient-derived cell lines. […]

CRC 119 = assay: In vitro screening, ponatinib IC50 (cell viability); assay type: cell-based; settings: Homo sapiens, 72 hours after drug addition
Method: (§9) For in vitro screening, cell lines were cultured in DMEM+10% FBS+1% Penicillin/Streptomycin and plated in drug free medium. Ponatinib solubilized in DMSO was added to cell lines containing between 3000-6000 cells that had been incubated at 37° C. for 24 hours. Each cell line was exposed to seven different drug combinations between 1.6 nM and 25 μM. Five replicates were used for each drug concentration. 72 hours after drug addition cell viability assay and IC50 values were calculated for each cell line using GraphPad Prism software.
(§10) Reanalyzing the screen data, FIG. 6A identified axitinib 61, sunitinib 62, and dasatinib 63 as targeting similar pathways as ponatinib 64. […] Pre and post ponatinib treatment the major signaling pathways downstream of FGFR, FIG. 7C, not only show a decrease in STAT expression FIG. 8 in CRC119 81, CRC240 83, and CRC057 85 but an increase in p-AKT expression in CRC 119 86, CRC240 87, and CRC057 88. Expression of p-ERK increased in CRC240 89, and CRC057 82 as well.

CRC057 [3] = assay: as above; assay type: cell-based; settings: Homo sapiens, 72 hours after drug addition
Method: as §9, §10

CRC240 [4] = assay: as above; assay type: cell-based; settings: Homo sapiens, 72 hours after drug addition
Method: as §9, §10

CCc1c2c(nc3ccc(O)cc13)-c1cc3c(c(=O)n1C2)COC(=O)[C@]3(O)CC [SN38, 7-ethyl-10-hydroxycamptothecin] showed an IC50 (organoid A) of 0.0116 µM, an IC50 (organoid B) of 43.9 µM and an IC50 (organoid C) of 32.6 nM.
CC(=O)O[C@@]12CO[C@@H]1C[C@H](O)[C@@]1(C)C(=O)[C@H](O)C3=C(C)[C@@H](OC(=O)[C@H](O)[C@@H](NC(=O)OC(C)(C)C)c4ccccc4)C[C@@](O)([C@@H](OC(=O)c4ccccc4)[C@H]21)C3(C)C [docetaxel] gave a cells killed (CRC057 [1]) of 47%, a cells killed (CRC119) of 88% and a cells killed (CRC240 [2]) of 46%. For the same molecule, the cells killed (CRC247) was 25%.
With COc1cccc2c1C(=O)c1c(O)c3c(c(O)c1C2=O)C[C@@](O)(C(=O)CO)C[C@@H]3O[C@H]1C[C@H](N)[C@H](O)[C@H](C)O1 [doxorubicin] the cells killed (CRC057 [1]) was 83%, the cells killed (CRC119) was 95% and the cells killed (CRC240 [2]) was 93%. The cells killed (CRC247) was 70%.
O=c1[nH]cc(F)c(=O)[nH]1 [fluorouracil] gave an IC50 (organoid A) of 3.96 µM, an IC50 (organoid B) of 0.037 µM and an IC50 (organoid C) of 125 nM.
CCc1c2c(nc3ccc(OC(=O)N4CCC(N5CCCCC5)CC4)cc13)-c1cc3c(c(=O)n1C2)COC(=O)[C@]3(O)CC [irinotecan] was tested, and the cells killed (16-159) was 64%, the cells killed (CRC119) was 43% and the “organoid sensitivity” value (CRC119 organoid) was “sensitive”. For the same molecule, the “organoid sensitivity” value (CRC240 organoid) was “sensitive”, the “PDX sensitivity” value (CRC119 PDX) was “sensitive” and the “PDX sensitivity” value (CRC240 PDX) was “sensitive”.
In the case of O=C1[O][Pt]2([NH][C@@H]3CCCC[C@H]3[NH]2)[O]C1=O [oxaliplatin], the cells killed (CRC057 [1]) is reported as 46%, the “organoid sensitivity” value (CRC057 organoid) is reported as “sensitive” and the killing (CRC057 organoid; 1 μM) is reported as greater than 50%. The “organoid sensitivity” value (CRC119 organoid) was “resistant”, the “organoid sensitivity” value (CRC16-159 organoid) was “resistant” and the “organoid sensitivity” value (CRC18-347 organoid; 18-347 organoid) was “sensitive”. For the same molecule, the killing (CRC18-347 organoid; CRC18-347 organoid, 1 μM) was greater than 50%, the “organoid sensitivity” value (CRC240 organoid) was “resistant” and the “PDX sensitivity” value (18-347 PDX) was “sensitive”. The “PDX sensitivity” value (CRC057 PDX) was “sensitive”, the “PDX sensitivity” value (CRC119 PDX) was “resistant” and the “PDX sensitivity” value (CRC16-159 PDX) was “resistant”. The “PDX sensitivity” value (CRC240 PDX) was “resistant”, the “organoid sensitivity” value (organoid A; Organoid A, from the IC50 data) was “resistant” and the IC50 (organoid A) was 128 µM. For the same molecule, the IC50 (organoid B) was 7.01 µM and the IC50 (organoid C) was 21700 nM.
With Cc1ccc(C(=O)Nc2ccc(CN3CCN(C)CC3)c(C(F)(F)F)c2)cc1C#Cc1cnc2cccnn12 [ponatinib] the inhibition at 1 µM (CRC cell lines) was no less than 50%, the IC50 (CRC 119) was 1100 nM and the IC50 (CRC057 [3]) was 700 nM. The IC50 (CRC240 [4]) was 1100 nM.
In the case of CC[C@]1(O)C[C@H]2CN(CCc3c([nH]c4ccccc34)[C@@](C(=O)OC)(c3cc4c(cc3OC)N(C=O)[C@H]3[C@@](O)(C(=O)OC)[C@H](OC(C)=O)[C@]5(CC)C=CCN6CC[C@]43[C@@H]65)C2)C1 [vincristine], the cells killed (CRC057 [1]) is reported as 46%, the cells killed (CRC119) is reported as 88% and the cells killed (CRC240 [2]) is reported as 63%. It also gave a cells killed (CRC247) of 37%.
CCC1=C[C@@H]2CN(C1)Cc1c([nH]c3ccccc13)[C@@](C(=O)OC)(c1cc3c(cc1OC)N(C)[C@H]1[C@@](O)(C(=O)OC)[C@H](OC(C)=O)[C@]4(CC)C=CCN5CC[C@]31[C@@H]54)C2 [vinorelbine] gave a cells killed (CRC057 [1]) of 46%, a cells killed (CRC119) of 89% and a cells killed (CRC240 [2]) of 56%. The cells killed (CRC247) was 33%.
